PubChem BioAssay (NCI)
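Briefly, cells in 96-well plates were exposed to five compound concentrations for 48 h, and endpoints were estimated by linear interpolation. Abbreviation: GI50, concentration required for 50% inhibition of growth. TGI: total growth inhibition.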

Columns and labels:
Assay in all cases: NCI anticancer screen, dose series, 48 h
SK-MEL-28 melanoma = tested on: SK-MEL-28 melanoma
A549 NSCLC = tested on: A549 NSCLC
A498 renal = tested on: A498 renal
NCI/ADR-RES ovarian = tested on: NCI/ADR-RES ovarian
SW-620 colon = tested on: SW-620 colon
MDA-MB-435 = tested on: MDA-MB-435
HOP-62 NSCLC = tested on: HOP-62 NSCLC
HCT-15 colon = tested on: HCT-15 colon
MCF7 breast = tested on: MCF7 breast
MDA-MB-231 breast = tested on: MDA-MB-231 breast
COLO 205 colon = tested on: COLO 205 colon
SK-MEL-5 melanoma = tested on: SK-MEL-5 melanoma
LOX IMVI melanoma = tested on: LOX IMVI melanoma
OVCAR-3 ovarian = tested on: OVCAR-3 ovarian
NCI-H460 lung = tested on: NCI-H460 lung
HCT-116 colon = tested on: HCT-116 colon
MOLT-4 leukemia = tested on: MOLT-4 leukemia
SF-295 CNS = tested on: SF-295 CNS
CAKI-1 renal = tested on: CAKI-1 renal
EKVX NSCLC = tested on: EKVX NSCLC
786-0 renal = tested on: 786-0 renal
IGROV1 ovarian = tested on: IGROV1 ovarian
HL-60(TB) leukemia = tested on: HL-60(TB) leukemia
OVCAR-5 ovarian = tested on: OVCAR-5 ovarian
OVCAR-4 ovarian = tested on: OVCAR-4 ovarian
NCI-H23 lung = tested on: NCI-H23 lung
K-562 leukemia = tested on: K-562 leukemia
HOP-92 NSCLC = tested on: HOP-92 NSCLC
SNB-75 CNS = tested on: SNB-75 CNS
HCC-2998 colon = tested on: HCC-2998 colon
MALME-3M melanoma = tested on: MALME-3M melanoma
OVCAR-8 ovarian = tested on: OVCAR-8 ovarian
SK-MEL-2 melanoma = tested on: SK-MEL-2 melanoma
PC-3 prostate = tested on: PC-3 prostate
RXF 393 renal = tested on: RXF 393 renal
DU-145 prostate = tested on: DU-145 prostate
UACC-62 melanoma = tested on: UACC-62 melanoma
NCI-H226 lung = tested on: NCI-H226 lung
NCI-H522 lung = tested on: NCI-H522 lung
CCRF-CEM leukemia = tested on: CCRF-CEM leukemia
BT-549 breast = tested on: BT-549 breast
T-47D breast = tested on: T-47D breast
TK-10 renal = tested on: TK-10 renal
UACC-257 melanoma = tested on: UACC-257 melanoma
U251 CNS = tested on: U251 CNS
KM12 colon = tested on: KM12 colon
SR leukemia = tested on: SR leukemia
SN12C renal = tested on: SN12C renal
SK-OV-3 ovarian = tested on: SK-OV-3 ovarian
HT29 colon = tested on: HT29 colon
UO-31 renal = tested on: UO-31 renal
ACHN renal = tested on: ACHN renal
M14 melanoma = tested on: M14 melanoma
SNB-19 CNS = tested on: SNB-19 CNS
RPMI-8226 leukemia = tested on: RPMI-8226 leukemia
SF-539 CNS = tested on: SF-539 CNS
HS 578T breast = tested on: HS 578T breast
SF-268 CNS = tested on: SF-268 CNS

CSC1=C(C(=O)N(COCC[Si](C)(C)C)c2ccccc2Br)CCC(C(C)(C)C)C1 (stereo unspecified)
TGI (SK-MEL-28 melanoma): > 100 µM
TGI (A549 NSCLC): > 100 µM
TGI (A498 renal): 85.9 µM
TGI (NCI/ADR-RES ovarian): > 100 µM
TGI (SW-620 colon): 41 µM
TGI (MDA-MB-435): > 100 µM
TGI (HOP-62 NSCLC): 53.2 µM
TGI (HCT-15 colon): 26.1 µM
TGI (MCF7 breast): 28 µM
TGI (MDA-MB-231 breast): 30.5 µM
TGI (COLO 205 colon): 25.7 µM
TGI (SK-MEL-5 melanoma): 27.2 µM
TGI (LOX IMVI melanoma): 29.2 µM
TGI (OVCAR-3 ovarian): 24.4 µM
TGI (NCI-H460 lung): 44.1 µM
TGI (HCT-116 colon): 18.3 µM
TGI (MOLT-4 leukemia): 21.9 µM
TGI (SF-295 CNS): 25.6 µM
TGI (CAKI-1 renal): 18.1 µM
TGI (EKVX NSCLC): 37.8 µM
TGI (786-0 renal): 26.2 µM
TGI (IGROV1 ovarian): > 100 µM
TGI (HL-60(TB) leukemia): 11.8 µM
TGI (OVCAR-5 ovarian): 28.7 µM
TGI (OVCAR-4 ovarian): > 100 µM
TGI (NCI-H23 lung): > 100 µM
TGI (K-562 leukemia): 29.1 µM
TGI (HOP-92 NSCLC): 45.8 µM
TGI (SNB-75 CNS): > 100 µM
TGI (HCC-2998 colon): 27 µM
TGI (MALME-3M melanoma): 46.4 µM
TGI (OVCAR-8 ovarian): > 100 µM
TGI (SK-MEL-2 melanoma): 31.7 µM
TGI (PC-3 prostate): > 100 µM
TGI (RXF 393 renal): 23.1 µM
TGI (DU-145 prostate): > 100 µM
TGI (UACC-62 melanoma): 39.9 µM
TGI (NCI-H226 lung): 34.4 µM
TGI (NCI-H522 lung): 24.6 µM
TGI (CCRF-CEM leukemia): > 100 µM
TGI (BT-549 breast): > 100 µM
TGI (T-47D breast): 34.3 µM
TGI (TK-10 renal): > 100 µM
TGI (UACC-257 melanoma): 47.8 µM
TGI (U251 CNS): 24 µM
TGI (KM12 colon): 42.2 µM
TGI (SR leukemia): 11.7 µM
TGI (SN12C renal): 27.8 µM
TGI (SK-OV-3 ovarian): > 100 µM
TGI (HT29 colon): 64.4 µM
TGI (UO-31 renal): 27 µM
TGI (ACHN renal): 51.2 µM
TGI (M14 melanoma): 76.3 µM
TGI (SNB-19 CNS): 42.9 µM
TGI (RPMI-8226 leukemia): > 100 µM

Cc1cc(NCCCNc2ccnc3cc(Cl)ccc23)nc(Nc2ccc(C(=O)N3CCCCC3)cc2)n1
GI50 (SK-MEL-28 melanoma): 2 µM
TGI (SK-MEL-28 melanoma): 3.75 µM
GI50 (A549 NSCLC): 3.56 µM
TGI (A549 NSCLC): 10.4 µM
GI50 (A498 renal): 1.89 µM
TGI (A498 renal): 5.07 µM
GI50 (NCI/ADR-RES ovarian): 14.9 µM
TGI (NCI/ADR-RES ovarian): 35.9 µM
GI50 (SW-620 colon): 2.12 µM
TGI (SW-620 colon): 4.52 µM
GI50 (MDA-MB-435): 1.71 µM
TGI (MDA-MB-435): 3.2 µM
GI50 (HOP-62 NSCLC): 2.4 µM
TGI (HOP-62 NSCLC): 7.43 µM
GI50 (HCT-15 colon): 2.52 µM
TGI (HCT-15 colon): 6.79 µM
GI50 (MCF7 breast): 1.82 µM
TGI (MCF7 breast): 4.09 µM
GI50 (COLO 205 colon): 1.8 µM
TGI (COLO 205 colon): 3.62 µM
GI50 (SK-MEL-5 melanoma): 1.93 µM
TGI (SK-MEL-5 melanoma): 3.34 µM
GI50 (LOX IMVI melanoma): 1.82 µM
TGI (LOX IMVI melanoma): 3.57 µM
GI50 (OVCAR-3 ovarian): 2.36 µM
TGI (OVCAR-3 ovarian): 5.91 µM
GI50 (NCI-H460 lung): 2.7 µM
TGI (NCI-H460 lung): 7.63 µM
GI50 (HCT-116 colon): 2.22 µM
TGI (HCT-116 colon): 5.83 µM
GI50 (MOLT-4 leukemia): 2.86 µM
TGI (MOLT-4 leukemia): 13.5 µM
GI50 (SF-295 CNS): 2.02 µM
TGI (SF-295 CNS): 3.89 µM
GI50 (CAKI-1 renal): 2.51 µM
TGI (CAKI-1 renal): 7.38 µM
GI50 (EKVX NSCLC): 3.65 µM
TGI (EKVX NSCLC): 16 µM
GI50 (786-0 renal): 1.83 µM
TGI (786-0 renal): 3.72 µM
GI50 (IGROV1 ovarian): 3.09 µM
TGI (IGROV1 ovarian): 12.7 µM
GI50 (SF-539 CNS): 1.89 µM
TGI (SF-539 CNS): 3.56 µM
GI50 (OVCAR-5 ovarian): 4.5 µM
TGI (OVCAR-5 ovarian): 18.5 µM
GI50 (OVCAR-4 ovarian): 2.83 µM
TGI (OVCAR-4 ovarian): 12.6 µM
GI50 (NCI-H23 lung): 4.38 µM
TGI (NCI-H23 lung): 18.6 µM
GI50 (K-562 leukemia): 1.98 µM
TGI (K-562 leukemia): 6.4 µM
GI50 (SNB-75 CNS): 1.69 µM
TGI (SNB-75 CNS): 3.69 µM
GI50 (HCC-2998 colon): 2.47 µM
TGI (HCC-2998 colon): 6.65 µM
GI50 (MALME-3M melanoma): 2.34 µM
TGI (MALME-3M melanoma): 4.15 µM
GI50 (OVCAR-8 ovarian): 3.61 µM
TGI (OVCAR-8 ovarian): 12.4 µM
GI50 (SK-MEL-2 melanoma): 2.17 µM
TGI (SK-MEL-2 melanoma): 4.29 µM
GI50 (PC-3 prostate): 3.9 µM
TGI (PC-3 prostate): 14.4 µM
GI50 (RXF 393 renal): 1.8 µM
TGI (RXF 393 renal): 3.67 µM
GI50 (DU-145 prostate): 3.42 µM
TGI (DU-145 prostate): 13.1 µM
GI50 (UACC-62 melanoma): 2.02 µM
TGI (UACC-62 melanoma): 3.81 µM
GI50 (HS 578T breast): 2.68 µM
TGI (HS 578T breast): 6.38 µM
GI50 (NCI-H226 lung): 21.8 µM
TGI (NCI-H226 lung): 36.9 µM
GI50 (NCI-H522 lung): 2.19 µM
TGI (NCI-H522 lung): 4.45 µM
GI50 (CCRF-CEM leukemia): 2.48 µM
TGI (CCRF-CEM leukemia): 8.4 µM
GI50 (SF-268 CNS): 1.91 µM
TGI (SF-268 CNS): 5.11 µM
GI50 (BT-549 breast): 2.31 µM
TGI (BT-549 breast): 5.43 µM
GI50 (T-47D breast): 2.15 µM
TGI (T-47D breast): 6.2 µM
GI50 (TK-10 renal): 1.99 µM
TGI (TK-10 renal): 4.59 µM
GI50 (UACC-257 melanoma): 2.39 µM
TGI (UACC-257 melanoma): 4.56 µM
GI50 (U251 CNS): 2.25 µM
TGI (U251 CNS): 4.92 µM
GI50 (KM12 colon): 2.96 µM
TGI (KM12 colon): 11.6 µM
GI50 (SR leukemia): 1.72 µM
TGI (SR leukemia): 4.24 µM
GI50 (SN12C renal): 2.33 µM
TGI (SN12C renal): 5.52 µM
GI50 (SK-OV-3 ovarian): 3.14 µM
TGI (SK-OV-3 ovarian): 8.23 µM
GI50 (HT29 colon): 2.33 µM
TGI (HT29 colon): 7.2 µM
GI50 (UO-31 renal): 2.16 µM
TGI (UO-31 renal): 5.87 µM
GI50 (ACHN renal): 2.85 µM
TGI (ACHN renal): 8.23 µM
GI50 (M14 melanoma): 2.12 µM
TGI (M14 melanoma): 4.06 µM
GI50 (SNB-19 CNS): 3.55 µM
TGI (SNB-19 CNS): 12.5 µM
GI50 (RPMI-8226 leukemia): 2.27 µM
TGI (RPMI-8226 leukemia): 5.66 µM

CSc1n[nH]c2c1c(C)nn2-c1ccccc1
TGI (SK-MEL-28 melanoma): > 100 µM
TGI (A549 NSCLC): > 100 µM
TGI (SW-620 colon): > 100 µM
TGI (MDA-MB-435): > 100 µM
TGI (HCT-15 colon): > 100 µM
TGI (MCF7 breast): > 100 µM
TGI (SK-MEL-5 melanoma): > 100 µM
TGI (OVCAR-3 ovarian): > 100 µM
TGI (NCI-H460 lung): > 100 µM
TGI (MOLT-4 leukemia): > 100 µM
TGI (EKVX NSCLC): > 100 µM
TGI (IGROV1 ovarian): > 100 µM
TGI (SF-539 CNS): > 100 µM
TGI (HL-60(TB) leukemia): > 100 µM
TGI (OVCAR-5 ovarian): > 100 µM
TGI (OVCAR-4 ovarian): > 100 µM
TGI (NCI-H23 lung): > 100 µM
TGI (K-562 leukemia): > 100 µM
TGI (HOP-92 NSCLC): > 100 µM
TGI (HCC-2998 colon): > 100 µM
TGI (SK-MEL-2 melanoma): > 100 µM
TGI (PC-3 prostate): > 100 µM
TGI (RXF 393 renal): > 100 µM
TGI (UACC-62 melanoma): > 100 µM
TGI (NCI-H226 lung): > 100 µM
TGI (BT-549 breast): > 100 µM
TGI (TK-10 renal): > 100 µM
TGI (UACC-257 melanoma): > 100 µM
TGI (U251 CNS): > 100 µM
TGI (SR leukemia): > 100 µM
TGI (SK-OV-3 ovarian): > 100 µM
TGI (HT29 colon): > 100 µM
TGI (UO-31 renal): > 100 µM
TGI (M14 melanoma): > 100 µM
TGI (SNB-19 CNS): > 100 µM
TGI (RPMI-8226 leukemia): > 100 µM
